Key:
[1] = system: APPswe/PS1∆E9-transgenic mice; parameters: method as in PMID 23785163; conditions: fed to APPswe/PS1∆E9-transgenic mice, preventive paradigm; cited from earlier work
[2] = system: very old transgenic AD mice; parameters: method as in PMID 23673233; conditions: fed to very old transgenic AD mice; cited from earlier work
[3] = system: Primary embryonic day 18 cortical cells; assay: Trophic factor withdrawal assay; assay type: cell-based; conditions: Cortical neurone; Cortical neuron; cell viability; read-out: Half-maximal effective concentration, Trophic factor withdrawal
Procedure: (§1) The various phenotypic screening assays were conducted as previously described. Briefly, HT-22, primary cortical neurons, or MC65 was plated and exposed to the different environmental stresses. Cells were treated with varying concentrations of CAD-31, and half-maximal effective concentration (EC50) was determined on the basis of cell viability.
(§2) • An assay that mimics the dramatic loss of neurotrophic support in the old brain is the trophic factor withdrawal assay. Primary embryonic day 18 cortical cells are plated at low density in serum-free medium. At low density, the cells die within 2 days; they can be rescued by combinations of neurotrophic growth factors, but not by one alone ([19] and unpublished data). […] BDNF is a molecule that is also involved in promoting memory and neurogenesis and is reduced in the brain with age and in AD, as well as in other neurological disorders. BDNF has long been considered a drug target for AD [23]. […] A reduction in GSH is a common denominator of old age and essentially all chronic central nervous system (CNS) diseases. J147 and CAD-31 both effectively reduce oxidative stress, with EC50 of 6 nM and 20 nM, respectively. • CAD-31 also prevents loss of energy metabolism that leads to neuron cell death in an in vitro ischemia model. […]

MC65 = assay: Aβ toxicity (intracellular); assay type: cell-based, human; conditions: Homo sapiens, MC65, MC65; read-out: Half-maximal effective concentration, Aβ toxicity (intracellular)
Procedure: as §1
• An assay that mimics the dramatic loss of neurotrophic support in the old brain is the trophic factor withdrawal assay. Primary embryonic day 18 cortical cells are plated at low density in serum-free medium. At low density, the cells die within 2 days; they can be rescued by combinations of neurotrophic growth factors, but not by one alone ([19] and unpublished data). […] BDNF is a molecule that is also involved in promoting memory and neurogenesis and is reduced in the brain with age and in AD, as well as in other neurological disorders. BDNF has long been considered a drug target for AD [23]. […] A reduction in GSH is a common denominator of old age and essentially all chronic central nervous system (CNS) diseases. J147 and CAD-31 both effectively reduce oxidative stress, with EC50 of 6 nM and 20 nM, respectively. • CAD-31 also prevents loss of energy metabolism that leads to neuron cell death in an in vitro ischemia model. […] Intracellular Aβ toxicity was assayed in the human neuron cell line MC65 that conditionally expresses the C99 fragment of the amyloid precursor protein. When the cells are induced to make Aβ, the cells die within 4 days. Both J147 and CAD-31 block this toxicity at around 10 nM. Therefore, CAD-31 has a repertoire of neuroprotective activities similar but not identical to that of its parent compound, J147.

[4] = system: HT22 cells expressing the brain-derived neurotrophic factor (BDNF) receptor transmembrane receptor kinase B; assay: BDNF-like activity (rescue from serum starvation); assay type: cell-based; conditions: Mus musculus, HT-22, read-out: Half-maximal effective concentration, BDNF-like activity
Procedure: as §1, §2

rat hippocampal neurons = assay: Aβ toxicity (extracellular); assay type: cell-based; conditions: Hippocampal neuron, read-out: Half-maximal effective concentration, Aβ toxicity (extracellular)
[5] = system: senescence-accelerated mouse-prone 8 (SAMP8) mice; parameters: method as in PMID 26564964; conditions: model of sporadic AD; cited from earlier work
HT22 = assay: In vitro ischemia; assay type: cell-based; conditions: Mus musculus, HT-22, read-out: Half-maximal effective concentration, In vitro ischemia
Procedure: as §1, §2

Aβ1–42 = Aβ1–42 (Homo sapiens, UniProt P05067); assay: Thioflavin S Aβ1–42 aggregation assay; assay type: biochemical; conditions: data not shown
Aβ1–42, sequence (P05067 672-713 limits assumed): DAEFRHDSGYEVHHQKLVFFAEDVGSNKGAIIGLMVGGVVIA

APPswe/PS1∆E9 mice = system: APPswe/PS1∆E9 mice; parameters: method as in PMID 22194796, PMID 23673233, PMID 27149904; conditions: administered to 3-month-old APPswe/PS1∆E9 mice for 7 months; cited from earlier work
normal rodents = system: normal rodents; parameters: method as in PMID 22194796, PMID 23673233, PMID 27149904; conditions: cited from earlier work
primary cortical neurons = assay: Oxytosis; assay type: cell-based; conditions: Primary cortical neuron; read-out: Half-maximal effective concentration, Oxytosis
Procedure: as §1, §2

EC50 [4] [nM]	EC50 (HT22) [nM]	EC50 (primary cortical neurons) [nM]	Compound	accumulation of ubiquitinated, aggregated proteins in the brain [1]	memory deficits and AD pathology [2]	EC50 [3] [nM]	EC50 (MC65) [nM]	EC50 (rat hippocampal neurons) [nM]	loss of synaptic proteins and cognitive decline [5]	binding to and direct inhibition of Aβ1–42 aggregation (Aβ1–42)	loss of synaptic proteins and cognitive decline (APPswe/PS1∆E9 mice)	memory (normal rodents)
–	–	–	COc1cc(/C=C/c2cc(/C=C/c3ccc(O)c(OC)c3)n(-c3ccccc3)n2)ccc1O [CNB-001]	reduces the accumulation of ubiquitinated, aggregated proteins in the brain	–	–	–	–	–	–	–	–
74	14	6	COc1cccc(/C=N/N(C(=O)C(F)(F)F)c2ccc(C)cc2C)c1 [J147, reference compound]	–	reverses memory deficits and some AD pathology	35	~10	15	prevents the loss of synaptic proteins and cognitive decline	Neither J147 nor CAD-31 binds to and directly inhibits Aβ1–42 aggregation	prevents the loss of synaptic proteins and cognitive decline	facilitates memory in normal rodents

Reference: paper PMC5513091, “A novel Alzheimer’s disease drug candidate targeting inflammation and fatty acid metabolism” (Alzheimer's Research & Therapy, 2017)
